The record followed here is patent publication US4673668A, “Aminonaphthacene derivatives” (Sumitomo Pharmaceuticals Company, priority 1982, dated 1987).

Molecules are shown by their SMILES. “And” between values parts separate entries of the source, which are not always exact repeats. Identical values can stand only once. Counter-ions that a name gives are not always drawn. Like-named read-outs stand apart in the source and are kept apart here.

Data set [1] concerns P388 mouse leukemia cells. As to the kind of experiment: Effect against survival time of mouse transplanted with P388 mouse leukemia cells (in vivo test, intraperitoneal administration). The settings on record: intraperitoneally, first and fifth days. Set-up: species or system mouse (CDF1). The source says:
(2) Effect against survival time of mouse transplanted with P388 mouse leukemia cells (in vivo test, intraperitoneal administration)
(§1) Tumor: P388 mouse leukemia.
(§2) Animals: CDF1 (BALB/C×DBA/2) mouse .male.5 weeks breeding, one group: 6 mice.
(§3) Number of cells transplanted: 10^6 /mouse, intraperitoneal administration.
Dosage: Test compound administered twice, i.e. the first and fifth days, intraperitoneally. Test compound hardly soluble or insoluble in water is applied in a solution or a suspension form by use of Tween 80.
(§4) Evaluation: Increase life span (ILS) is calculated on the basis of median survival times (T) and (C) of treated groups and controls, repsctively: [formula] (3) Effect against survival times of mouse transplanted with P388 mouse leukemia cells (in vivo test; intravenous or per os administration)

The test system of data set [2] is P388 mouse leukemia cells. The experiment in a line: Effect against P388 mouse leukemia cell (in vitro test). Type of data set: cell-based. The protocol:
(1) Effect against P388 mouse leukemia cell (in vitro test)
P388 leukemia cells have been subcultured in abdominal cavity of DBA/2 mouse. […] A suspension of 5×10^4 cells/ml containing a test compound is prepared and is cultured in a wet atmosphere containing 5% CO2 at 37° C. for 48 hours.
Number of cells before and after culturing is counted by coulter counter. Proliferative ratio is defined as ratio of the increase in cells after proliferation for 48 hours to an increase in cells cultured in a suspension containing no test compound. Inhibition ratio (IR) is defined as follows: […]
1--(proliferative ratio).
In other words, [formula] where C^treated : number of cells after culturing for 48 hours in the presence of a treated compound
C^non : number of cells after culturing for 48 hours in the absence of a test compound
Co : number of cells when culturing is initiated.

The subject of data set [3] is P388 mouse leukemia cells. The experiment in a line: Effect against survival times of mouse transplanted with P388 mouse leukemia cells (in vivo test; intravenous). Set-up: species or system mouse (CDF1). The settings on record: once, first day. The method, then: as §1, §2, §3, §4
(§5) Similar to (2), but a test compound administered once, i.e., only the first day, intravenously or orally.

The nature of data set [4]: Toxicity test (maximum tolerated dose). The settings on record: mouse, in vivo; single application; BALB/C mice, ten a group; largest amount where no death is seen. The source says: The largest amount where no death of mice is seen is defined as maximum tolerated dose.
The test system of data set [5] is P388 mouse leukemia cells. The experiment in a line: Effect against survival times of mouse transplanted with P388 mouse leukemia cells (in vivo test; per os administration). Also noted: species or system mouse (CDF1). The settings on record: po, once, first day. The protocol: as §1, §2, §3, §4, §5
Where [6] appears, read: P388, 1 γ/ml, 48 hours, read-out: Inhibition ratio (IR).
Setting [7] is: P388, 10^-1 γ/ml, 48 hours, read-out: Inhibition ratio (IR).
Setting [8] is: P388, 10 γ/ml, 48 hours, read-out: Inhibition ratio (IR).
Setting [9] is: P388, 48 h, read-out: Inhibition ratio (IR), 1 γ/ml.
Where [10] appears, read: P388, 48 h, read-out: Inhibition ratio (IR), 10^-1 γ/ml.
Setting [11] is: P388, 48 h, read-out: Inhibition ratio (IR), 10 γ/ml.

On to `CC(=O)[C@]1(N)Cc2c(O)c3c(c(O)c2[C@@H](OC2CCCCO2)C1)C(=O)c1ccccc1C3=O` (single isomer, unassigned) [Example 10-A, 7-0-tetrahydropyranyl-9α-amino-9β-acetyl-7,8,9,10-tetrahydro-6,7α,11-trihydroxy-5,12-naphthacenedione], for which the results for the “Increase life span (ILS)” value in data set [1] (6.25 mg/kg), in data set [1] (12.5 mg/kg) and in data set [1] (25 mg/kg) were 25%, 77% and 286%, respectively. In addition, the inhibition at 1 µg/mL in data set [2] (setting [6]) came to 94.4%. In data set [2] (setting [7]), the inhibition at 0.1 µg/mL worked out at 94.6%. The inhibition at 10 µg/mL in data set [2] (setting [8]) came out at 89%.
Turning to `CC(=O)O[C@H]1C[C@H](O[C@H]2C[C@](N)(C(C)=O)Cc3c(O)c4c(c(O)c32)C(=O)c2ccccc2C4=O)OC[C@H]1OC(C)=O` [11 (hydrochloride), d-7α-[(2-deoxy-3,4-di-0-acetyl-β-D-erythro-pentapyranosyl)oxy]-9α-amino-9β-acetyl-7,8,9,10-tetrahydro-6,11-dihydroxy-5,12-naphthacenedione], the ILS in data set [3] (10 mg/kg) is listed as 35%; in data set [3] (20 mg/kg), 67%; in data set [3] (40 mg/kg) it was -45%; in data set [5] (17.5 mg/kg), 40%; in data set [5] (35 mg/kg), 63%; in data set [5] (70 mg/kg), -42%. The “Toxic Death” value in data set [3] (40 mg/kg) and in data set [5] (70 mg/kg) was 6/6 each time. Also, the results for the “Increase life span (ILS)” value in data set [1] (6.25 mg/kg), in data set [1] (12.5 mg/kg) and in data set [1] (25 mg/kg) were 37%, 123% and 280%, respectively. Moreover, in data set [4], the MTD was determined as 40 mg/kg. The inhibition at 1 µg/mL in data set [2] (setting [6]) amounted to 97.9%. In addition, the inhibition at 0.1 µg/mL in data set [2] (setting [7]) stood at 1.9%. Further, the inhibition at 10 µg/mL in data set [2] (setting [8]) turned out to be 100%.
With `CC(=O)[C@]1(N)Cc2c(O)c3c(c(O)c2[C@@H](O[C@H]2C[C@H](O)[C@H](O)CO2)C1)C(=O)c1ccccc1C3=O` [12 (hydrochloride), d-7α-[(2-deoxy-β-D-erythro-pentapyranosyl)oxy]-9αamino-9β-acetyl-7,8,9,10-tetrahydro-6,11-dihydroxy-5,12-naphthacenedione], the ILS in data set [3] (10 mg/kg) was 32%; in data set [3] (20 mg/kg), 60%; in data set [3] (40 mg/kg), -43%; in data set [5] (17.5 mg/kg) it was 31%; in data set [5] (35 mg/kg), 50%; in data set [5] (70 mg/kg), 86%. For the same compound, in data set [3] (40 mg/kg), the “Toxic Death” value was 6/6. Moreover, in data set [4], the MTD was 32 mg/kg. For the same compound, in data set [2] (setting [9]), the inhibition at 1 µg/mL came out at 83.8%. For the same compound, in data set [2] (setting [10]), the inhibition at 0.1 µg/mL worked out at 27.5%. Besides, in data set [2] (setting [11]), the inhibition at 10 µg/mL was determined as 85%.
For `CC[C@@]1(O)C[C@H](O[C@H]2C[C@H](N(C)C)[C@H](O[C@H]3C[C@H](O)[C@H](O[C@H]4CCC(=O)[C@H](C)O4)[C@H](C)O3)[C@H](C)O2)c2c(cc3c(c2O)C(=O)c2c(O)cccc2C3=O)[C@H]1C(=O)OC` [ACM-A, AclacinomycinA, reference compound], the ILS in data set [5] (10.7 mg/kg) came to 11%; in data set [5] (21.5 mg/kg) it was 25%; in data set [5] (43 mg/kg) it was 37%.
As for `COc1cccc2c1C(=O)c1c(O)c3c(c(O)c1C2=O)C[C@@](O)(C(=O)CO)C[C@@H]3O[C@H]1C[C@H](N)[C@H](O)[C@H](C)O1` [ADR, Adriamycin, reference compound], the ILS in data set [3] (3.75 mg/kg) worked out at 21%; in data set [3] (7.5 mg/kg) it was 47%; in data set [3] (15 mg/kg), 83%. Further, the “Increase life span (ILS)” value is 58% and 78% and 57% in data set [1] (1 mg/kg, positive control); 90% and 84% in data set [1] (2 mg/kg, positive control); 133% in data set [1] (4 mg/kg, positive control). The compound further gave an MTD in data set [4] of 12.5 mg/kg. For the same compound, the inhibition at 1 µg/mL in data set [2] (setting [9]) came to 85.9%. For the same compound, the inhibition at 0.1 µg/mL in data set [2] (setting [10]) came out at 85%. The inhibition at 0.01 µg/mL in data set [2] (P388, 48 h, read-out: Inhibition ratio (IR), 10^-2 γ/ml) was found to be 69.2%. Also, in data set [2] (setting [11]), the inhibition at 10 µg/mL is 90.6%.
For the compound `CC(=O)O[C@@H]1[C@H](C)O[C@@H](O[C@H]2C[C@](N)(C(C)=O)Cc3c(O)c4c(c(O)c32)C(=O)c2ccccc2C4=O)C[C@@H]1OC(C)=O` [Example 1, d-7α-[(3,4-di-0-acetyl-2,6-dideoxy-α-L-lyxo-hexopyranosyl)oxy]-9α-amino-9β-acetyl-7,8,9,10-tetrahydro-6,11-dihydroxy-5,12-naphthacenedione], the “Increase life span (ILS)” value in data set [1] (6.25 mg/kg) stood at 42%; in data set [1] (12.5 mg/kg), 86%; in data set [1] (25 mg/kg) it was 152%. Further, the inhibition at 1 µg/mL in data set [2] (setting [6]) was 84.1%. In addition, in data set [2] (setting [7]), the inhibition at 0.1 µg/mL was found to be 32.4%. Further, the inhibition at 10 µg/mL in data set [2] (setting [8]) stood at 82.7%.
Regarding `CC(=O)[C@]1(N)Cc2c(O)c3c(c(O)c2[C@@H](O[C@H]2C[C@H](O)[C@H](O)[C@H](C)O2)C1)C(=O)c1ccccc1C3=O` [Example 2, d-7α-[(2,6-dideoxy-α-L-lyxo-lexopyranosyl)oxy]-9α-amino-9β-acetyl-7,8,9,10-tetrahydro-6,11-dihydroxy-5,12-naphthacenedione], in data set [1] (6.25 mg/kg), the “Increase life span (ILS)” value is listed as 135%. Besides, in data set [2] (setting [6]), the inhibition at 1 µg/mL amounted to 84.5%. Further, the inhibition at 0.1 µg/mL in data set [2] (setting [7]) is 44.1%. Moreover, the inhibition at 10 µg/mL in data set [2] (setting [8]) amounted to 89.9%.
For the compound `CC(=O)[C@]1(N)Cc2c(O)c3c(c(O)c2[C@@H](O[C@H]2C[C@H](N)[C@H](O)[C@H](C)O2)C1)C(=O)c1c(O)cccc1C3=O` [Example 25 (dihydrochloride), d-7α-[(2,3,6-trideoxy-3-amino-α-L-lyxo-hexopyranosyl)oxy]-9α-amino-9β-acetyl-4,6,11-trihydroxy-7,8,9,10-tetrahydro-5,12-naphthacenedione], the inhibition at 1 µg/mL in data set [2] (setting [6]) came out at 95.7%. For the same compound, the inhibition at 0.1 µg/mL in data set [2] (setting [7]) amounted to 89%. The inhibition at 10 µg/mL in data set [2] (setting [8]) came to 99.4%.
Turning to `CC(O)[C@]1(N)Cc2c(O)c3c(c(O)c2[C@@H](OC2CCCCO2)C1)C(=O)c1ccccc1C3=O` (stereo partly drawn) [Example 29, 7-0-tetrahydropyranyl-9α-amino-9β-(1-hydroxyethyl)-7,8,9,10-tetrahydro-6,7α,11-trihydroxy-5,12-naphthacenedione], the “Increase life span (ILS)” value in data set [1] (3.13 mg/kg) turned out to be 66%; in data set [1] (6.25 mg/kg), 126%. Moreover, the inhibition at 1 µg/mL in data set [2] (setting [6]) is 92.9%. In addition, in data set [2] (setting [7]), the inhibition at 0.1 µg/mL is 93.5%. Besides, the inhibition at 0.01 µg/mL in data set [2] (P388, 10^-2 γ/ml, 48 hours, read-out: Inhibition ratio (IR)) was found to be 40.1%. For the same compound, the inhibition at 10 µg/mL in data set [2] (setting [8]) is 94.1%.
